One compound from patent US11970713B2, “Method for long-term ex vivo maintenance or expansion of human erythroblast, human megakaryocyte-erythroid progenitor, or human common myeloid progenitor cell and application thereof” (OCGENE THERAPEUTICS CORPORATION, priority 2020, dated 2024) can be followed below.

“Also recorded” adds a separate entry of the source.

The subject of this test is human umbilical cord blood mononuclear cells. The test is described as follows: Cell expansion in E6 medium with different tankyrase inhibitors, removal of SB590885 or CHIR99021, or different XAV939 concentrations (Example 6). It counts as cell-based. Particulars: XAV939 between 0.2 μM and 2 μM in E6 + 3i. As to the method: 2×10^6 of human umbilical cord blood mononuclear cells were cultured in E6 medium supplemented with 3i composition (the same as that in EXAMPLE 1) as a control group; and 2×10^6 of human umbilical cord blood mononuclear cells were cultured in E6 medium supplemented with 3i+X composition (the same as that in EXAMPLE 1) as experimental groups, wherein X presented the tankyrase inhibitor, and different tankyrase inhibitors were selected from JW55, RK-287107, WIKI4, XAV939 or TC-E5001 in different experimental groups.
Additionally, the inventors investigated effect of removal of SB590885, removal of CHIR99021, or experience of different concentrations of XAV939 on cell expansion. The cell counting results were shown in Tables 2, 3, and 4, respectively.

As for `Oc1nc(-c2ccc(C(F)(F)F)cc2)nc2c1CSCC2` [XAV939], the “Effect of XAV939 concentration on expanded cell numbers” value is on record as “about the same; also recorded: can promote cell expansion”.
